Experimental data taken from patent US20200239530A1, “COMPOUNDS AND METHODS OF MODULATING PROTEIN DEGRADATION” (Vividion Therapeutics, Inc., priority 2017, published 2020).
Blank lines part the entries; values can stand above or below the compound they belong to.

What was measured:
Assay type in all cases: binding
Q8ND25 = target: T1, Q8ND25 (Homo sapiens, UniProt Q8ND25); test: Cysteine liganding, probe competition (Table 2B); settings: one line per cysteine site
T1 construct: 200 μL of lysate containing 5 mg/ml proteome was treated with 2 μL of 100× compound stock; endogenous in cells
Excerpt: (§1) The following 96-well sample prep protocol was used for sample preparation.

Q8NHG8 = target: T2, Q8NHG8 (Homo sapiens, UniProt Q8NHG8); test: Cysteine liganding, probe competition (Table 2B); settings: one line per cysteine site
T2 construct: 200 μL of lysate containing 5 mg/ml proteome was treated with 2 μL of 100× compound stock; endogenous in cells
Excerpt: as §1

[1] = target: cysteine residue illustrated in Table 1A or Table 2A (Homo sapiens, UniProt Q13616); test: Competitive cysteine profiling of cell lysate with desthiobiotin iodoacetamide probe (96-well sample prep); parameters: endogenous in cells; settings: UniProt Q13616; 100 uM
Description: In some embodiments, the solution sample (e.g., cell sample, cell lysate sample, or comprising isolated proteins) is incubated with a compound of Formula (I) for analysis of protein-probe interactions. In some instances, the solution sample (e.g., cell sample, cell lysate sample, or comprising isolated proteins) is further incubated in the presence of an additional compound probe prior to addition of the compound of Formula (I). […] In such instances, the solution sample is incubated with a probe and a ligand for competitive protein profiling analysis.
as §1
Cells were resuspended in cold PBS on ice and sonicated with a probe sonicator to achieve lysis. 200 μL of lysate containing 5 mg/ml proteome was treated with 2 μL of 100× compound stock in a 2-mL deep-well plate. The treated lysate was subsequently incubate at 25° C. for 1 hr with shaking at 600 rpm. The treated lysate was further incubated with 2 μL of 10 mM desthiobiotin iodoacetamide probe at 25° C. for 1 hr with shaking at 600 rpm. Next, the lysate was further treat with 20 μL of solution of PBS containing 11 mM MgSO4 and 2.5% Turbonuclease stock and incubated at 25° C. for 20 minutes with shaking at 600 rpm. 1.7 mL ice-cold acetone was added to each well and incubated at −20° C. for 2 hr, followed by max speed (4200 rpm) spin for 45 min. […]

[2] = target: T3, cysteine residue illustrated in Table 1A or Table 2A (Homo sapiens, UniProt Q5VU92); test: as above; settings: UniProt Q5VU92
T3 construct: Cells were resuspended in cold PBS on ice and sonicated with a probe sonicator to achieve lysis; endogenous in cells
Method in brief: (§2)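 Sonicated cell lysate (5 mg/ml proteome) was preincubated with compound 1 h at 25 °C, then labelled with desthiobiotin iodoacetamide probe 1 h at 25 °C. After reduction, alkylation and trypsin digestion, probe-labelled peptides were streptavidin-enriched and eluted for mass-spectrometric analysis.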

[3] = target: T4, SEC63 Translocation protein SEC63 homolog (Homo sapiens, UniProt Q9UGP8); test: Cysteine liganding, probe competition
T4 construct: Cells were resuspended in cold PBS on ice and sonicated with a probe sonicator to achieve lysis; endogenous in cells
T4 sequence (Q9UGP8 1-760): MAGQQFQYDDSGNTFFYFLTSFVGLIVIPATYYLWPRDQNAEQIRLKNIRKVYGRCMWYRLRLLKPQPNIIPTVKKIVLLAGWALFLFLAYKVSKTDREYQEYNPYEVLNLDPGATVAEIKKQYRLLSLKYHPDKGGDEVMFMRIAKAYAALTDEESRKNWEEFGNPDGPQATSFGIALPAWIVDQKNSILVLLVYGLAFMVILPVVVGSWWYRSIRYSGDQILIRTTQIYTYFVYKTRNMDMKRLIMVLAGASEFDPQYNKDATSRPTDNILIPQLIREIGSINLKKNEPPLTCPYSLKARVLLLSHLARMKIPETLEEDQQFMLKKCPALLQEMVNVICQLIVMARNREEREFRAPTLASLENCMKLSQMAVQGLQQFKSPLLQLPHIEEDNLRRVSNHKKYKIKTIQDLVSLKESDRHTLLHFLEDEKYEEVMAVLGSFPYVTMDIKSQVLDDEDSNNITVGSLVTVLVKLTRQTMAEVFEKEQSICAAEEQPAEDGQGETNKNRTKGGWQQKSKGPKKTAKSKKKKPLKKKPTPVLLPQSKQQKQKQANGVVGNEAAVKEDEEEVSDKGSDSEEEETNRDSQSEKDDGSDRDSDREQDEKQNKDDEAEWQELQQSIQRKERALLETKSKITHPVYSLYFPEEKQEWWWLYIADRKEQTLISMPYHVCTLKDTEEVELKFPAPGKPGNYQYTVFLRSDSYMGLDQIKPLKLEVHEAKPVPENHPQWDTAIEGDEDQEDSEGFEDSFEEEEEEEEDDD
Method in brief: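 Lysates from probe-sonicated cells in PBS (5 mg/ml proteome) were exposed to compound for 1 hr at 25° C, then labelled with desthiobiotin iodoacetamide probe (10 mM stock) for 1 hr at 25° C. Probe-tagged peptides were streptavidin-enriched after trypsin digestion.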

[4] = target: T5, cysteine residue illustrated in Table 1A or Table 2A (Homo sapiens, UniProt Q58WW2); test: Competitive cysteine profiling of cell lysate with desthiobiotin iodoacetamide probe (96-well sample prep); settings: UniProt Q58WW2; 100 uM
T5 construct: Cells were resuspended in cold PBS on ice and sonicated with a probe sonicator to achieve lysis; endogenous in cells
Method in brief: as §2

[5] = target: T6, cysteine residue illustrated in Table 1A or Table 2A (Homo sapiens, UniProt Q9UBI1); test: as above; settings: UniProt Q9UBI1; 500 uM
T6 construct: Cells were resuspended in cold PBS on ice and sonicated with a probe sonicator to achieve lysis; endogenous in cells
Method in brief: as §2

[6] = 100 uM, read-out: KB05_100 uM_percent_inhibition
[7] = 500 uM, read-out: KB02_500 uM_percent_inhibition

T2 sequence (Q8NHG8 whole entry): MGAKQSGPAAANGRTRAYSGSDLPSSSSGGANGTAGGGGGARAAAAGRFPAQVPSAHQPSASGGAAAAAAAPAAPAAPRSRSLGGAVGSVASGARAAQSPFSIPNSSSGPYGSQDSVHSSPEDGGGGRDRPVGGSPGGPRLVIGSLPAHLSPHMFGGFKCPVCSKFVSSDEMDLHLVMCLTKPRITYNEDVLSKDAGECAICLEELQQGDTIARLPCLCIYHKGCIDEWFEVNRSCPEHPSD
Sequence of cysteine residue illustrated in Table 1A or Table 2A (Homo sapiens, UniProt Q13616) (Q13616 whole entry): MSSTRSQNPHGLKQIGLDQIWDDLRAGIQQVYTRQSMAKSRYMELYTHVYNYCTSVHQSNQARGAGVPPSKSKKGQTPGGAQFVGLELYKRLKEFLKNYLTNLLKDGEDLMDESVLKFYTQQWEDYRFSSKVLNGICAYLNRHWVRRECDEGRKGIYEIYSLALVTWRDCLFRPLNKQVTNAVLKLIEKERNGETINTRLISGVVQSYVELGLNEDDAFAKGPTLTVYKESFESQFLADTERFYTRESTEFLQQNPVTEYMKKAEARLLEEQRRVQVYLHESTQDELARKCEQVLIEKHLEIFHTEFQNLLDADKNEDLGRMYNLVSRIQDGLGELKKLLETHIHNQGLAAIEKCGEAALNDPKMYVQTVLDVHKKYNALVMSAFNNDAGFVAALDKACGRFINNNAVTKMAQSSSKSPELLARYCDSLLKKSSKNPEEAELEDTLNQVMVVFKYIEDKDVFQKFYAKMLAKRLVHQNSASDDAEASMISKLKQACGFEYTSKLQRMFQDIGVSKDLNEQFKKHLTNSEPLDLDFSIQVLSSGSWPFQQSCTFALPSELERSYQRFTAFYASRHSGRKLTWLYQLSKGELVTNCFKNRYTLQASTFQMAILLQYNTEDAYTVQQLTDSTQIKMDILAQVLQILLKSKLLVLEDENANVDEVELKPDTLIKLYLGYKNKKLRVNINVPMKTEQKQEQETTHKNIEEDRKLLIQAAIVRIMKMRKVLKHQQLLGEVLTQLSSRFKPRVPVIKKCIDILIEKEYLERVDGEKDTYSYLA
T3 sequence (Q5VU92 whole entry): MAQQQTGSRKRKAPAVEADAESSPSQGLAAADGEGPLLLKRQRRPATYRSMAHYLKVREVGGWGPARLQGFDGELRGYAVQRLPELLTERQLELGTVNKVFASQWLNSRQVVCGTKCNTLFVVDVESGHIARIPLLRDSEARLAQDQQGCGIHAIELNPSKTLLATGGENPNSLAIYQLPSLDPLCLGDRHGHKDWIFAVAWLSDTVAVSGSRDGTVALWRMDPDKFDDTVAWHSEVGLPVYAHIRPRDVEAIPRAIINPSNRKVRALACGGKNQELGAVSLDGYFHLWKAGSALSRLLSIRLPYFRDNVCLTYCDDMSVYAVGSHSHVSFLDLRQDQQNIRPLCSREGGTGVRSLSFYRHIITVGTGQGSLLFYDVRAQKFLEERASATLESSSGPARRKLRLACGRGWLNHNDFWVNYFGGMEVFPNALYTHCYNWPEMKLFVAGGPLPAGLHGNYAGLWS
T1 sequence (Q8ND25 whole entry): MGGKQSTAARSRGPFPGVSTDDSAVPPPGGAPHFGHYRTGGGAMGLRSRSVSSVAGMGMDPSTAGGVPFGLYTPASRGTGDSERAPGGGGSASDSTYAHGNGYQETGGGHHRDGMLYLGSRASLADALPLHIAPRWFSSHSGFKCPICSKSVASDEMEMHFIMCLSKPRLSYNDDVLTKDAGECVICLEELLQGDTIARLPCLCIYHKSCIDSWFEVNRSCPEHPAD
T5 sequence (Q58WW2 whole entry): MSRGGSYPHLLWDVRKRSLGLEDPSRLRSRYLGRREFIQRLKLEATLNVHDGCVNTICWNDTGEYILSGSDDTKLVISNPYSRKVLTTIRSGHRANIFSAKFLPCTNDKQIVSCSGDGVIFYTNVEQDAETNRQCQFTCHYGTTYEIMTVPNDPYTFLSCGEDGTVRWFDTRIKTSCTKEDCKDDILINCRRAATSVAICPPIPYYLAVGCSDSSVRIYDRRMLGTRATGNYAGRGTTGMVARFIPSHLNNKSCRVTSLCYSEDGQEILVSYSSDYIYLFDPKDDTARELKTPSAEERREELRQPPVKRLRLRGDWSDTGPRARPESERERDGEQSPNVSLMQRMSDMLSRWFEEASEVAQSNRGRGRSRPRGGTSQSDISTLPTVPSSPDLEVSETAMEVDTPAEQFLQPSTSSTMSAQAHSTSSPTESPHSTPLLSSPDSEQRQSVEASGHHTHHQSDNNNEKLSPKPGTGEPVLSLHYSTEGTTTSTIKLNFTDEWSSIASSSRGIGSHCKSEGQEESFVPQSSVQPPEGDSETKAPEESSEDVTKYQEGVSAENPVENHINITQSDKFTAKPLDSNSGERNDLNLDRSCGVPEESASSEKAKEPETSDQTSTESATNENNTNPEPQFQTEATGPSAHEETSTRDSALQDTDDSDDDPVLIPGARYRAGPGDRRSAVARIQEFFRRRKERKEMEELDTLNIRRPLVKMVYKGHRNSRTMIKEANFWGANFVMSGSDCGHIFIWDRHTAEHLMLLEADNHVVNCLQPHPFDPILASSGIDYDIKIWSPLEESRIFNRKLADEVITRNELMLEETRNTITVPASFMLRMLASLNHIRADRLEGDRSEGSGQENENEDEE
T6 sequence (Q9UBI1 whole entry): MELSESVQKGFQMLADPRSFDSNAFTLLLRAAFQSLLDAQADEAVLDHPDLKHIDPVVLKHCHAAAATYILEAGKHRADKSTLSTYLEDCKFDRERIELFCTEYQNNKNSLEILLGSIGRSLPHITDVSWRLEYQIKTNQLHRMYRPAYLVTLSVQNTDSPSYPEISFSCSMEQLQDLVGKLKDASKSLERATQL

inhibition at 100 µM (Q8ND25; [6]): 9%
inhibition at 100 µM (Q8NHG8; [6]): 9%
KB05_100 uM_percent_inhibition [1]: 4%
Structure (SMILES): C=CC(=O)N(c1ccccc1)c1ccc(Br)cc1 [KB05]

Structure (SMILES): COc1ccc2c(c1)CCCN2C(=O)CCl [KB02]
inhibition at 500 µM (Q8ND25; [7]): 42%
inhibition at 500 µM (Q8NHG8; [7]): 35%
KB02_100 uM_percent_inhibition ([2]; 100 uM): 25%
KB02_500 uM_percent_inhibition ([2]; 500 uM): 29%
Liganded ([3]; SEC63 Res# 295, uniprot Q9UGP8): YES

Structure (SMILES): O=C(CCl)Nc1cc(C(F)(F)F)cc(C(F)(F)F)c1 [KBO3]
KB03_100 uM_percent_inhibition [1]: 31%
KB03_100 uM_percent_inhibition [4]: 67%
KB03_500 uM_percent_inhibition [5]: 29%
100 Max ([3]; uniprot Q9UGP8): 17.92
100 ave ([3]; uniprot Q9UGP8): 4.99
500 Max ([3]; uniprot Q9UGP8): 55.53
500 ave ([3]; uniprot Q9UGP8): 48.96
